One test concerns Neutrophils (CD11b+). Type of test: cell-based, human.
The test system of test [1] is Basophils (CD63+/CD203c+). The experiment in a line: Basophil activation by COVID-19 vaccines and vaccine components, blood of a hypersensitive subject. The test is classed as cell-based, human. To be noted: subject with known allergic reaction to mRNA-1273 booster.

On to `CCO` [ethanol], for which the “percent neutrophil activation versus control, vaccine components” value in the test on Neutrophils (CD11b+) is recorded as “did not”.
Take “2-[(polyethylene glycol)-2000]-N,N-ditetradecylacetamide [ALC0159]”: the “percent neutrophil activation versus control, vaccine components” value with Neutrophils (CD11b+) was “higher percent neutrophil activation versus control”. In addition, the “basophil activation and gross granulocyte activation in response to vaccine components” value in test [1] is “marked increase”.
With `CCCCCCCCCCCOC(=O)CCCCCN(CCO)CCCCCCCC(=O)OC(CCCCCCCC)CCCCCCCC` [SM102], the “percent neutrophil activation versus control, vaccine components” value with Neutrophils (CD11b+) was “higher percent neutrophil activation versus control”. Besides, the “basophil activation and gross granulocyte activation in response to vaccine components” value in test [1] was “marked increase”.
With polysorbate-80 [PS80], the “percent neutrophil activation versus control, vaccine components” value with Neutrophils (CD11b+) was “higher percent neutrophil activation versus control”. Further, the “basophil activation and gross granulocyte activation in response to vaccine components” value in test [1] was “marked increase”.
On to `CCCCCCCCCCCCCCCCCC(=O)OC[C@H](COP(=O)([O-])OCC[N+](C)(C)C)OC(=O)CCCCCCCCCCCCCCCCC` [DSPC, 1,2-diastearoyl-sn-glycero-3-phosphocholine], for which, in the test on Neutrophils (CD11b+), the “percent neutrophil activation versus control, vaccine components” value is given as “did not”.
In the case of `CCCCCCCCC(CCCCCC)C(=O)OCCCCCCN(CCCCO)CCCCCCOC(=O)C(CCCCCC)CCCCCCCC` (stereo not shown) [ALC0315], the “percent neutrophil activation versus control, vaccine components” value with Neutrophils (CD11b+) is listed as “higher percent neutrophil activation versus control”. In addition, the “basophil activation and gross granulocyte activation in response to vaccine components” value in test [1] is given as “marked increase”.
In the case of “2,2-dimyristoyl-rac-glycero3-methoxypolyethylene glycol-2000 [PEG2000-DMG]”, in the test on Neutrophils (CD11b+), the “percent neutrophil activation versus control, vaccine components” value is “higher percent neutrophil activation versus control”. The “basophil activation and gross granulocyte activation in response to vaccine components” value in test [1] is “marked increase”.
For 2-hydroxypropyl-β-cyclodextrin [HBCD], the “percent neutrophil activation versus control, vaccine components” value in the test with Neutrophils (CD11b+) is reported as “higher percent neutrophil activation versus control”.

The values are drawn from patent publication US20250327794A1, “FLUOROMETRIC METHODS FOR DETECTION OF ALLERGIC SENSITIVITY TO ENVIRONMENTAL, FOODSTUFF, AND MEDICAMENT STIMULANTS” (CELL SCIENCE SYSTEMS CORPORATION, priority 2022, published 2025).
